Test results: ChEMBL document CHEMBL1201862, “PubChem BioAssay data set” (2004)
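A five-concentration, 48-hour dose response in 96-well plates underlies each endpoint, interpolated linearly between surrounding concentrations. GI50 marks 50% less growth.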 Active and inactive are the calls of the source. Cut-off read from the data, not from the text of the source: active = GI50 up to about 1.1 µM and inactive = higher.

Experiments:
Assay in all cases: NCI-60 cell line screen, 48 h
A549 = test system: A549
HCT-15 = test system: HCT-15
HOP-62 = test system: HOP-62
HOP-92 = test system: HOP-92
MDA-MB-231 = test system: MDA-MB-231
MDA-MB-435 = test system: MDA-MB-435
MDA-N = test system: MDA-N
Malme-3M = test system: Malme-3M
NCI-H460 = test system: NCI-H460
NCI/ADR-RES = test system: NCI/ADR-RES
OVCAR-3 = test system: OVCAR-3
OVCAR-4 = test system: OVCAR-4
OVCAR-5 = test system: OVCAR-5
RPMI-8226 = test system: RPMI-8226
SF-268 = test system: SF-268
SF-539 = test system: SF-539
SK-MEL-28 = test system: SK-MEL-28
SK-OV-3 = test system: SK-OV-3
SN12C = test system: SN12C
T47D = test system: T47D

Row | SMILES | GI50 (A549) | GI50 (HCT-15) [µM] | GI50 (HOP-62) | GI50 (HOP-92) | GI50 (MDA-MB-231) | GI50 (MDA-MB-435) | GI50 (MDA-N) | GI50 (Malme-3M) | GI50 (NCI-H460) | GI50 (NCI/ADR-RES) | GI50 (OVCAR-3) | GI50 (OVCAR-4) | GI50 (OVCAR-5) | GI50 (RPMI-8226) | GI50 (SF-268) | GI50 (SF-539) | GI50 (SK-MEL-28) | GI50 (SK-OV-3) | GI50 (SN12C) | GI50 (T47D)
1 | COc1ccc(NC2C(=O)C3(C)CCC2C3(C)C)cc1 (stereo not given) | > 100 µM (inactive) | > 100 | > 100 µM (inactive) | 33.4 µM (inactive) | > 100 µM (inactive) | > 100 µM (inactive) | > 100 µM (inactive) | > 100 µM (inactive) | > 100 µM (inactive) | > 100 µM (inactive) | > 100 µM (inactive) | 72.9 µM (inactive) | > 100 µM (inactive) | 52.2 µM (inactive) | > 100 µM (inactive) | > 100 µM (inactive) | > 100 µM (inactive) | > 100 µM (inactive) | > 100 µM (inactive) | > 100 µM (inactive)
2 | c1cc2c(cc1NC1=NCCO1)OCO2 | > 100 µM (inactive) | > 100 | > 100 µM (inactive) | > 70.3 µM (inactive) | > 100 µM (inactive) | 50.4 µM (inactive) | 42.2 µM (inactive) | > 100 µM (inactive) | > 100 µM (inactive) | > 100 µM (inactive) | > 100 µM (inactive) | > 100 µM (inactive) | > 100 µM (inactive) | > 100 µM (inactive) | > 100 µM (inactive) | > 100 µM (inactive) | > 100 µM (inactive) | > 100 µM (inactive) | > 100 µM (inactive) | > 100 µM (inactive)
3 | c1ccc2c(c1)c1c3c(c4c(n32)=NCCN4)CCC1 | 48.5 µM (inactive) | 15.2 | 36.1 µM (inactive) | 25.6 µM (inactive) | 24.2 µM (inactive) | 29.7 µM (inactive) | 20.7 µM (inactive) | 31.6 µM (inactive) | 34.7 µM (inactive) | 27.9 µM (inactive) | 34.8 µM (inactive) | 42.5 µM (inactive) | 36.3 µM (inactive) | 24.3 µM (inactive) | 31.6 µM (inactive) | 46.1 µM (inactive) | 55.3 µM (inactive) | 37.1 µM (inactive) | 18.5 µM (inactive) | 20.7 µM (inactive)
4 | COc1ccc(C(=O)/C=C/c2ccc(O)c(O)c2F)c(OC)c1 | 11 µM (inactive) | 0.34 | 4.36 µM (inactive) | 20 µM (inactive) | 9.82 µM (inactive) | 3.58 µM (inactive) | 3.23 µM (inactive) | 7.64 µM (inactive) | 2.75 µM (inactive) | 4.62 µM (inactive) | 1.05 µM (active) | 4.09 µM (inactive) | 10.7 µM (inactive) | 1.85 µM (inactive) | 2.99 µM (inactive) | 3.2 µM (inactive) | 8.11 µM (inactive) | 9.27 µM (inactive) | 3.89 µM (inactive) | 0.649 µM (active)
5 | c1ccc2c(c1)NC1(N3CCCCC3)CCCCC21 (stereo not given) | 30.5 µM (inactive) | 44 | > 100 µM (inactive) | 20 µM (inactive) | 34.2 µM (inactive) | 35.2 µM (inactive) | 28.1 µM (inactive) | 58.2 µM (inactive) | 50.6 µM (inactive) | 91.8 µM (inactive) | 41.7 µM (inactive) | 56.4 µM (inactive) | 35.2 µM (inactive) | 39.1 µM (inactive) | 52.5 µM (inactive) | > 100 µM (inactive) | 49.3 µM (inactive) | > 100 µM (inactive) | 35.4 µM (inactive) | 20.9 µM (inactive)
6 | O=C(c1ccccc1)C(C(=O)c1ccccc1)c1nc2ccccc2sc1=O | 8.91 µM (inactive) | 7.48 | 9.59 µM (inactive) | 2.72 µM (inactive) | 11.6 µM (inactive) | 10.4 µM (inactive) | > 25 µM (inactive) | 9.53 µM (inactive) | 11.4 µM (inactive) | 10.5 µM (inactive) | > 25 µM (inactive) | 9.71 µM (inactive) | > 25 µM (inactive) | 7.18 µM (inactive) | > 25 µM (inactive) | 17.1 µM (inactive) | > 25 µM (inactive) | 6.46 µM (inactive) | 6.22 µM (inactive) | > 25 µM (inactive)
7 | Cc1ccc(S(=O)(=O)N/N=C2/CCCOC2)cc1 | > 100 µM (inactive) | > 100 | > 100 µM (inactive) | > 100 µM (inactive) | > 100 µM (inactive) | > 100 µM (inactive) | > 100 µM (inactive) | > 100 µM (inactive) | > 100 µM (inactive) | > 100 µM (inactive) | > 100 µM (inactive) | > 100 µM (inactive) | > 100 µM (inactive) | > 100 µM (inactive) | > 100 µM (inactive) | > 100 µM (inactive) | > 100 µM (inactive) | > 100 µM (inactive) | > 100 µM (inactive) | > 100 µM (inactive)
8 | CCCOc1ccc(/C=C/C2=[N+](CCO)CCO2)cc1 | > 100 µM (inactive) | > 100 | > 100 µM (inactive) | > 100 µM (inactive) | > 100 µM (inactive) | > 100 µM (inactive) | > 100 µM (inactive) | > 100 µM (inactive) | > 100 µM (inactive) | > 100 µM (inactive) | > 100 µM (inactive) | > 100 µM (inactive) | > 100 µM (inactive) | > 100 µM (inactive) | > 100 µM (inactive) | > 100 µM (inactive) | > 100 µM (inactive) | > 100 µM (inactive) | > 100 µM (inactive) | > 100 µM (inactive)
9 | CC1=NN(c2ccccc2Cl)C2(C1)SCC(=O)N2c1nc2ccccc2s1 (stereo not given) | > 100 µM (inactive) | > 100 | > 100 µM (inactive) | > 100 µM (inactive) | > 100 µM (inactive) | > 100 µM (inactive) | > 100 µM (inactive) | > 100 µM (inactive) | > 100 µM (inactive) | > 100 µM (inactive) | > 100 µM (inactive) | > 100 µM (inactive) | > 100 µM (inactive) | > 100 µM (inactive) | > 100 µM (inactive) | > 100 µM (inactive) | > 100 µM (inactive) | > 100 µM (inactive) | > 100 µM (inactive) | > 100 µM (inactive)
10 | COc1ccc(C[C@H]2NC[C@H](OC(C)=O)[C@H]2OC(C)=O)cc1 | 0.151 µM (active) | 0.144 | 0.195 µM (active) | 0.0417 µM (active) | 0.308 µM (active) | 0.164 µM (active) | 0.133 µM (active) | 0.158 µM (active) | 0.172 µM (active) | 0.171 µM (active) | 0.233 µM (active) | 0.104 µM (active) | 0.122 µM (active) | 0.275 µM (active) | 0.0614 µM (active) | 0.441 µM (active) | 0.143 µM (active) | 0.138 µM (active) | 0.124 µM (active) | 0.112 µM (active)
11 | CC(=O)CCCCC(=O)Nc1ccc(CC(NC(=O)OC(C)(C)C)C(=O)NCC(=O)OCc2ccccc2)cc1 (stereo not given) | 53.7 µM (inactive) | 62.8 | 13.8 µM (inactive) | 29.1 µM (inactive) | 22.5 µM (inactive) | 21.2 µM (inactive) | 21 µM (inactive) | 19.3 µM (inactive) | 20.7 µM (inactive) | > 100 µM (inactive) | 14.8 µM (inactive) | 13.7 µM (inactive) | 63.4 µM (inactive) | 18 µM (inactive) | 22.4 µM (inactive) | 18.8 µM (inactive) | 19.3 µM (inactive) | 23 µM (inactive) | 24.7 µM (inactive) | 19.9 µM (inactive)
12 | COc1ccc(NC(C)c2ccncc2)cc1 (stereo not given) | > 100 µM (inactive) | > 100 | > 100 µM (inactive) | > 100 µM (inactive) | > 100 µM (inactive) | > 100 µM (inactive) | > 100 µM (inactive) | > 100 µM (inactive) | > 100 µM (inactive) | > 100 µM (inactive) | > 100 µM (inactive) | > 100 µM (inactive) | > 100 µM (inactive) | > 100 µM (inactive) | > 100 µM (inactive) | > 100 µM (inactive) | > 100 µM (inactive) | 18 µM (inactive) | > 100 µM (inactive) | > 100 µM (inactive)
13 | N/N=C1/C(=N/O)CCc2nonc21 | > 100 µM (inactive) | > 100 | > 100 µM (inactive) | > 100 µM (inactive) | > 100 µM (inactive) | > 100 µM (inactive) | > 100 µM (inactive) | > 100 µM (inactive) | > 100 µM (inactive) | > 100 µM (inactive) | > 100 µM (inactive) | > 100 µM (inactive) | > 100 µM (inactive) | > 100 µM (inactive) | > 100 µM (inactive) | > 100 µM (inactive) | > 100 µM (inactive) | > 100 µM (inactive) | > 100 µM (inactive) | > 100 µM (inactive)
14 | COC1=C(C)C(=O)c2c(c(COC(N)=O)c3n2CC2C3N2C)C1=O (stereo not given) | < 0.01 µM (active) | < 0.0118 | < 0.01 µM (active) | 0.148 µM (active) | 0.168 µM (active) | 0.0189 µM (active) | 0.019 µM (active) | 0.0495 µM (active) | < 0.01 µM (active) | < 0.025 µM (active) | 0.0256 µM (active) | 0.0826 µM (active) | 0.0313 µM (active) | < 0.0154 µM (active) | 0.0256 µM (active) | 0.0112 µM (active) | 0.0502 µM (active) | < 0.0156 µM (active) | 0.0132 µM (active) | 0.0301 µM (active)
